In data set [1] the target is T1, RyR2 (Sus scrofa, UniProt A0A5G2R1W3).
T1 construct: isolated SR vesicles derived from porcine cardiac muscle; from tissue; host or cells: porcine heart (cardiac sarcoplasmic reticulum vesicles)
Kind of data set: [3H]ryanodine ligand binding assay in cardiac SR vesicles. More on the design: species or system porcine. As to conditions: relative to vehicle (DMSO). On the procedure: RyR2 activity was quantified by the fraction of [^3H]ryanodine bound to RyR2. […] Data are shown as mean±SD (n=6).
[^3H]ryanodine ligand binding assay—[^3H]ryanodine, [9,21-3H(N)] (56 Ci/mmol) was obtained from PerkinElmer. Porcine cardiac SR vesicles were isolated as previously described (Fruen et al., 2000) and incubated with, 200 nM CaM binding peptide, 0.1 μM CaCl2, 20 mM PIPES, 150 mM KCl, 5 mM GSH, 0.1 mg/mL BSA, 1 μg/mL aprotininin, lug/mL leupeptin, and 1 μM DTT for 30 min at 37° C. […] In 96-well plates, cardiac SR membranes (CSR, 3 mg/mL) were pre-incubated with 1% v/v ent-B1 (to yield the indicated drug concentrations) for 30 min, at 22° C., in a solution containing 150 mM KCl, 5 mM GSH, 1 μg/mL Aprotinin/Leupeptin, 1 mM EGTA, and 23 μM or 1.62 mM CaCl2 (100 nM or 30 μM free Ca^2+, respectively as determined by MaxChelator), 0.1 mg/mL BSA, and 20 mM K-PIPES (pH 7.0). Non-specific [^3H]ryanodine binding to SR was assessed by addition of 15 μM non-radioactive ryanodine. Maximal [^3H]ryanodine binding was assessed by addition of 5 mM adenylyl-imidodiphosphate (AMP-PNP), supplemented with 20 mM caffeine. […] Binding of [^3H]ryanodine (7.5 nM) was determined following a 3 h incubation at 37° C. and filtration through grade GF/B glass microfiber filters (Brandel Inc., Gaithersburg, MD, US) using a M96T-Brandel Harvester. […]

Data set [2] can be described thus: Plasma stability ex vivo. In kind it is in vitro ADME. As to conditions: mouse; murine plasma, 37° C., two hours; read-out: parent compound remaining in plasma. On the procedure:
FIGS. 11(A-B) show in vivo pharmacokinetics in mice for a compound of the present invention. […] N=3 mice. Plasma collected serially at 0.167, 0.333. 0.5, 1, 3, and 8 hours post-administration. […] Individual data points (grey) shown alongside mean values with connecting lines.
Plasma stability experiments—Drug-free mouse plasma was preincubated in a 96-well polypropylene plate for 30 minutes on a microplate shaker at 37° C. prior to the addition of ent-B1 (final concentration 1900 ng/mL). Drug was added to individual wells (n=3 per compound), mixed thoroughly, and 50 μL of plasma was removed at 0, 15, 30, 45 60, 90, and 120 minutes to evaluate compound stability in mouse plasma at 37° C. Samples removed at each time point were transferred to a 96-well polypropylene plate containing 300 μL of ice-cold acetonitrile containing internal standard (ent-verticilide-d12; 100 ng/mL). Samples were mixed multiple times with a pipette to ensure precipitation of plasma proteins and the plate was covered with an adhesive film to prevent solvent evaporation. […] Peak area ratios of the analyte and internal standard for each sample were analyzed by liquid chromatography coupled to tandem mass spectrometry (LC-MS/MS) and normalized to the area ratio for time point 0 (baseline) to calculate the percent of ent-B1 remaining at each time point. […]

Each structure is given as a SMILES string. Values joined by “and” are separate entries in the source; they are usually repeats but may differ in a detail not shown here. Equal values may be shown once.

T1 sequence (A0A5G2R1W3 20-4900): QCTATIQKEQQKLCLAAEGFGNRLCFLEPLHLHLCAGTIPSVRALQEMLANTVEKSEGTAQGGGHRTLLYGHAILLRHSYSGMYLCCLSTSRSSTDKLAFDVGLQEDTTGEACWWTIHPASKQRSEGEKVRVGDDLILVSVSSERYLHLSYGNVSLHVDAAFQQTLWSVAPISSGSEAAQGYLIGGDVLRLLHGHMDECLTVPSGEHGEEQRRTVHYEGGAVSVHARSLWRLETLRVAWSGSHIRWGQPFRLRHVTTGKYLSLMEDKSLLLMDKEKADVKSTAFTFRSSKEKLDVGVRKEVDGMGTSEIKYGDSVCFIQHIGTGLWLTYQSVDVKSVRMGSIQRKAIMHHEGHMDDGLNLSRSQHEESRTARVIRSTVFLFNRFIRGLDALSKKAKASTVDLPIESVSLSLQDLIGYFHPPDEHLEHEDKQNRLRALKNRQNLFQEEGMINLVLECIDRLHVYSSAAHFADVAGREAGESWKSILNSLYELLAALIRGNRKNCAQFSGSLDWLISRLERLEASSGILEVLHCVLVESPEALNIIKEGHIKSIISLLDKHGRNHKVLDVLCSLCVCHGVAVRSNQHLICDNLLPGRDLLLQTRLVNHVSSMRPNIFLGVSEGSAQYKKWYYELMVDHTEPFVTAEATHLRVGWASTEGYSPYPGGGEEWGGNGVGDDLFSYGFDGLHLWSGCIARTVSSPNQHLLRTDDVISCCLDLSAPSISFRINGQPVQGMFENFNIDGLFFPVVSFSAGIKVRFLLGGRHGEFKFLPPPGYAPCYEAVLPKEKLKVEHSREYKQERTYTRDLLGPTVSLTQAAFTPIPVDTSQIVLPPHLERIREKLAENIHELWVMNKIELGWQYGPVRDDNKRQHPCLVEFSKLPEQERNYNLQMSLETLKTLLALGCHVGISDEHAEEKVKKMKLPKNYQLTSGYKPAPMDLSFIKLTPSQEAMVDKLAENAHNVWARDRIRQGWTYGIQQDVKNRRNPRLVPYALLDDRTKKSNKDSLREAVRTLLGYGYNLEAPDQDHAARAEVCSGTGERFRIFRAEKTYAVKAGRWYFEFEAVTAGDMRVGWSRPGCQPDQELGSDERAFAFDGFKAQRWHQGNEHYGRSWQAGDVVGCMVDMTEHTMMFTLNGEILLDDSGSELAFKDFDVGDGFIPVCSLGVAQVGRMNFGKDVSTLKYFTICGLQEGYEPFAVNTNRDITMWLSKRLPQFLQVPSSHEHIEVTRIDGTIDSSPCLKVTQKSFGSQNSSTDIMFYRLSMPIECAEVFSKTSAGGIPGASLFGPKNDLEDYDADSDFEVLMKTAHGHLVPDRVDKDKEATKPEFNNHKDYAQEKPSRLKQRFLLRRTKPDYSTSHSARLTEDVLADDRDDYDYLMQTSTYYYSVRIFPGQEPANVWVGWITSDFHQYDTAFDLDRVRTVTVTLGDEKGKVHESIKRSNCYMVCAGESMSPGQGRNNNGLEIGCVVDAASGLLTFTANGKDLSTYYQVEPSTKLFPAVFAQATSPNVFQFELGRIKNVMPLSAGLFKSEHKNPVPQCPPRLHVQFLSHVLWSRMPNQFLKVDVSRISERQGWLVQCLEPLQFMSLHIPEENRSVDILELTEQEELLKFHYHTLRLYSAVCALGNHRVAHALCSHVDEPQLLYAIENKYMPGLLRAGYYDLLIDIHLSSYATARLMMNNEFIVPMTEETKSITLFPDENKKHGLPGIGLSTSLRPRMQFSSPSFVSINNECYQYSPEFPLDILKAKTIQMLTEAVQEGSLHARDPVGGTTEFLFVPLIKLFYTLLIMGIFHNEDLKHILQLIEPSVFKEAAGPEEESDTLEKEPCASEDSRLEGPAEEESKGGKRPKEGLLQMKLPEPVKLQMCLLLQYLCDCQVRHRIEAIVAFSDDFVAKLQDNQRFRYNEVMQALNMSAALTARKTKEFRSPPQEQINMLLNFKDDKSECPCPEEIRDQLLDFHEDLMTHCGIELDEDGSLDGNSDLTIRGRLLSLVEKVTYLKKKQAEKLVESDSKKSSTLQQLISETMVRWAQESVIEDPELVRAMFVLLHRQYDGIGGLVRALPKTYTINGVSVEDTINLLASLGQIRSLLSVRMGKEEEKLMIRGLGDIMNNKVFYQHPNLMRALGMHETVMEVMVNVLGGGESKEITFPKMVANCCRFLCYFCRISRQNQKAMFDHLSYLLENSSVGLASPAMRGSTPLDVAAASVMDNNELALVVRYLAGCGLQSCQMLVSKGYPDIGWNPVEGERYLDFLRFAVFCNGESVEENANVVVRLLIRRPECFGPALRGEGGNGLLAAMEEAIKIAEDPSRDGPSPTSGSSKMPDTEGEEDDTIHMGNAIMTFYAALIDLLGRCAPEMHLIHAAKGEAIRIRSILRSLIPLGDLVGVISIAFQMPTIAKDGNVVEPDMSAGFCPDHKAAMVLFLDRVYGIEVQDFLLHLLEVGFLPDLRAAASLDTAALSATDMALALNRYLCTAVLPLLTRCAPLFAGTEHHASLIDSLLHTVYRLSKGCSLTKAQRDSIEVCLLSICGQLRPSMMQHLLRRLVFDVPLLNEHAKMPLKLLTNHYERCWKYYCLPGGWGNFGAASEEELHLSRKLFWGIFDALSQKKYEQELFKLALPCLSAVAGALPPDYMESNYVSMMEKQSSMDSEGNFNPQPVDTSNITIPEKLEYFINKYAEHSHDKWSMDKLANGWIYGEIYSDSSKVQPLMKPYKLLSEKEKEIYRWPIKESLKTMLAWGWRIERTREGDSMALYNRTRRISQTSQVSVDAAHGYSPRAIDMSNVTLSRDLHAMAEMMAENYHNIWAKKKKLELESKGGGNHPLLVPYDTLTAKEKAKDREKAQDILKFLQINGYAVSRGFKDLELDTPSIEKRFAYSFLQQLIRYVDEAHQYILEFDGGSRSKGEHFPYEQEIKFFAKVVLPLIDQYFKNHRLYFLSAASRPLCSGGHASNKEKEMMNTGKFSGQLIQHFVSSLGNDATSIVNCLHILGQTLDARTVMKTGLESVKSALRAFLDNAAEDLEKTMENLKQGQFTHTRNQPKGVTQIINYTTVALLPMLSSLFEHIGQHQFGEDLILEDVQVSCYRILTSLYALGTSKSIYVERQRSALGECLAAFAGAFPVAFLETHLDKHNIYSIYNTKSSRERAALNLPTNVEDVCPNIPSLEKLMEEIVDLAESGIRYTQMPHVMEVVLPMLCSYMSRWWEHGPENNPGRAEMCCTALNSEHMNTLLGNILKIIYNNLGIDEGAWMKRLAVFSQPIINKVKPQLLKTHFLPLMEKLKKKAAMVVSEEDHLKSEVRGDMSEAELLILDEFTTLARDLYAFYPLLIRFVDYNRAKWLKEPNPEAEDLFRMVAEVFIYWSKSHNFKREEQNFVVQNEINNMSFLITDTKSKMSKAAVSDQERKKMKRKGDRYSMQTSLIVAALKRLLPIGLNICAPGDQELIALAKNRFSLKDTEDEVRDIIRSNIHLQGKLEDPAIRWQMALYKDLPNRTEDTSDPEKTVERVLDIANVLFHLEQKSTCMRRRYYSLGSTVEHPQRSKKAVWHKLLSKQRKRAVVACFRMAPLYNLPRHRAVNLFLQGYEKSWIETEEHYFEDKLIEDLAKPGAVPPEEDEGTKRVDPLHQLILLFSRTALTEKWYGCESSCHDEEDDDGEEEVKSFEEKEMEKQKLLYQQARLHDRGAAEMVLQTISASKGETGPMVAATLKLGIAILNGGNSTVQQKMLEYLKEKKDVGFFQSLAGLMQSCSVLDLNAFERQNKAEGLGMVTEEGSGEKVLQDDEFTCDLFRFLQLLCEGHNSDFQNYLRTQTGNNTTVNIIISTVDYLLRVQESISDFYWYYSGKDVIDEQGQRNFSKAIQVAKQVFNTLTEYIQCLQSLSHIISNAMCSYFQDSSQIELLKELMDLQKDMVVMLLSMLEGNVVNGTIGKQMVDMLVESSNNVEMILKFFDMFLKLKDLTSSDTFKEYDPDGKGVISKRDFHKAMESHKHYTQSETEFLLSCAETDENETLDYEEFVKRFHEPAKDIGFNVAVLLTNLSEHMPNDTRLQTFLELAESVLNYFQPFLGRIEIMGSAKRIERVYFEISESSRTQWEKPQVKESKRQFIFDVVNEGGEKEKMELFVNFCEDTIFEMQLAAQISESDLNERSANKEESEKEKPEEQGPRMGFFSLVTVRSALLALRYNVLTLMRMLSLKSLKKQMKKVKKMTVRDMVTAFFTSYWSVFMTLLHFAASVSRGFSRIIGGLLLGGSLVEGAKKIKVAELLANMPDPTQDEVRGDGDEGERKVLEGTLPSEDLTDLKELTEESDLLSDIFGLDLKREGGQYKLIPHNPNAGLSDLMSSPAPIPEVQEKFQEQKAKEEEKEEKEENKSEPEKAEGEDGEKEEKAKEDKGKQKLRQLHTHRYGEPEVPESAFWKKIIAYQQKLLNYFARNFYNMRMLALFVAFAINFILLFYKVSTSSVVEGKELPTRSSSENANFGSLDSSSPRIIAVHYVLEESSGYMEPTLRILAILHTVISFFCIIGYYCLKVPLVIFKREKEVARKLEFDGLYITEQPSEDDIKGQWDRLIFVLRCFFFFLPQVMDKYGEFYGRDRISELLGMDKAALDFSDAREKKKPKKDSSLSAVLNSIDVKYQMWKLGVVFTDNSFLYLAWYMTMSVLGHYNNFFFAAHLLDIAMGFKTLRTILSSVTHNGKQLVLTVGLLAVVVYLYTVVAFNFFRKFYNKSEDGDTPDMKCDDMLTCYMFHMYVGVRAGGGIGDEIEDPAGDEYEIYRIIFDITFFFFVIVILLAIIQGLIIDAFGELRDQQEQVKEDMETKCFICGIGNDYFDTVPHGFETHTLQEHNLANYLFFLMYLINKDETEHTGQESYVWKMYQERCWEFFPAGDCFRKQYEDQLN

Turning to `CCCCC[C@@H]1OC(=O)[C@@H](C)N(C)C(=O)[C@H](CCCCC)OC(=O)[C@@H](C)N(C)C(=O)[C@H](CCCCC)OC(=O)[C@@H](C)N(C)C1=O` (single isomer, unassigned) [ent-B1], in data set [1], the 50% inhibitory concentration (IC50) was 1.9 µM and 1.93 µM. Also, the amount remaining at 2 h, 1900 ng/mL in data set [2] was approximately 95%.

The term IC50 denotes the concentration needed to halve the response being measured. Higher therefore signals weaker potency in that assay. In general, amount remaining refers to what is left of the initial amount, in per cent.

For the origin of these results see patent US20240174718A1, “RYANODINE RECEPTOR INHIBITOR COMPOUNDS AND METHODS RELATING THERETO” (Vanderbilt University, priority 2022, published 2024).
